A short description of data set [1]: In vitro electrotransport flux of the PTH analogs. The conditions noted are these: retro-inverso versions, 1 mM donor pH 5.0, 100 μA cm^-2, 32° C. The data set is classed as in vitro ADME, human. The protocol:
In vitro electrotransport studies were carried out in multi-compartment, custom-built, small volume cells using anodic drive. 1 mM PTH in 10 mM buffer was placed in the donor compartment and 25 mM final ionic strength receptor was placed in the receptor compartment. The receptor solution was 15 mM NaCl buffered to pH 7 with 10 mM imidazole, 0.1% bovine serum albumin (BSA) as a blocking agent, Tween 20 detergent and sodium azide as a bactericide.
Heat-stripped human cadaver stratum corneum was placed between the donor and receptor compartments with the epidermis side toward the receptor compartment. A constant DC current of […] (ie,0.1 mA/cm^2) was applied. Cells were maintained at 32° C. during the in vitro studies with receptor samples taken every 2 hours (receptor volume removed and replaced with "fresh" receptor at each sampling). Receptor samples were analyzed by reversed-phase HPLC.
Peak areas of PTH receptor samples were compared to standard curves of the same analog of known concentrations run at the same time using an analytical polymeric column, at a flow rate of 1.5 mL/min with a gradient from 10-50% B in ten minutes for elution. Buffer A was 0.1% trifluroacetic acid (TFA), 1% acetonitrile; Buffer B was 0.1% TFA, 98.9% acetonitrile. Analog concentrations were converted to mass flux and plotted vs. time.
For the in vitro electrotransport studies, described donors contained the retro-inverso versions (ie, D-amino acid residues were used and were assembled in reverse order than usual) of the PTH analogs (1 mM) in aqueous solutions at pH 5.0. This was because PTH analogs 1 and 2 were not stable when incubated with stripped stratum corneum, probably due to proteolytic digestion by skin proteases. The fully assembled electrotransport cells were incubated at 32±0.5° C. The skin contact area available for transport was 1.27 cm^2. The donor compartment volume was 200 μL; the receptor compartment volume was 350 μL. The receptor solution was separated from the cathode by an anion exchange membrane (Ionac™, Eletrosynthesis Co., Lancaster, N.Y.). Each cell was connected to a constant current source at a standard current density of 100 μA cm^-2. The voltage drop across each cell was monitored at approximately 2-hour intervals for the duration of the experiment.

Data set [2] in a line: Stability on incubation with stripped stratum corneum. Type of data set: in vitro ADME, human.
The target in data set [3] is T1, PTH receptor (Rattus norvegicus, UniProt P25961).
T1 sequence (P25961 27-591): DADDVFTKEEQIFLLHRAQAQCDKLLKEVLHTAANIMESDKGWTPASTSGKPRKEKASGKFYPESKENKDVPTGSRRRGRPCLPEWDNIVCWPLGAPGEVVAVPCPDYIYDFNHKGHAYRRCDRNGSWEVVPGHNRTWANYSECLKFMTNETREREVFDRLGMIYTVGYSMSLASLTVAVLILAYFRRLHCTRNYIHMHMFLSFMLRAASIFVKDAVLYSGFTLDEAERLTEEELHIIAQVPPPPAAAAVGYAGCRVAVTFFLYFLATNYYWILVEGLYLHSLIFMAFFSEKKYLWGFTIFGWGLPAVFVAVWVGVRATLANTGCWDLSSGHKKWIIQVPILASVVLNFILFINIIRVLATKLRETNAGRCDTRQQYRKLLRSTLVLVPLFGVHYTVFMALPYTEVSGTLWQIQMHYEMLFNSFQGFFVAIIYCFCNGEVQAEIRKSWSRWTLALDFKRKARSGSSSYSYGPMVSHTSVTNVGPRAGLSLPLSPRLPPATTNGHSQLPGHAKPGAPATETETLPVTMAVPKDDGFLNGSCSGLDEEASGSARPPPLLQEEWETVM
In words: PTH analog activity assay: stimulation of adenylate cyclase (cAMP by SPA) in UMR106 cells.
Experimental: PTH concentrations were determined by OD280 using an extinction coefficient of 6600 for the recombinant peptide and 5500 for the synthetic peptide. The rat osteosarcoma cell line UMR106 (ATCC CRL 1661) was used for in vitro testing of the peptide's ability to activate the PTH receptor. Activation of the PTH receptor leads to an intracellular rise in cAMP concentration.
The UMR106 cells were seeded at about 2.5×10^5 per well in a 48 well dish and allowed to grow to confluence. Assays were performed on cells 3-5 days postconfluence. The media (Dulbecco's modified Eagle's medium, DMEM, with fetal calf serum) was removed, and 1 mL of fresh media was applied. PTH (recombinant or synthetic) at various concentrations and 3-isobutyl-l-methyl xanthine (IBMX) at 1 mM final concentration were then added to each well of the plate, which was then incubated for 5 minutes at room temperature. The media was then removed and the cells quickly washed with ice cold PBS. The cells were then extracted twice with 1 mL of absolute ethanol. The two extractions were combined and the ethanol removed by evaporation. The extract was then redissolved in 1 mL of scintillation proximity buffer (SPA buffer) (Amersham, Arlington Heights, Ill.). The cAMP concentration was determined by assay using a scintillation proximity assay (SPA) kit available from Amersham.

Here are results for two compounds from patent US6313092A, “Method for increasing the electrotransport flux of polypeptides” (ALZA Corporation, priority 1998, dated 2001).

Where a SMILES comes first, the peptide text is derived from it. The star is where a group is joined. hSer(lactone) = O=C1OCC[C@@H]1N*

Broadly, the EC50 is the concentration needed to bring the measured effect to its halfway point. As for `CC[C@H](C)[C@H](NC(=O)[C@H](CCC(=O)O)NC(=O)[C@H](CO)NC(=O)[C@@H](NC(=O)[C@@H](N)CO)C(C)C)C(=O)N[C@@H](CCC(N)=O)C(=O)N[C@@H](CC(C)C)C(=O)N[C@@H](CC(C)C)C(=O)N[C@@H](Cc1c[nH]cn1)C(=O)N[C@@H](CC(N)=O)C(=O)N[C@@H](CC(C)C)C(=O)NCC(=O)N[C@@H](CCCCN)C(=O)N[C@@H](Cc1c[nH]cn1)C(=O)N[C@@H](CCCNC(=N)N)C(=O)N[C@@H](CC(N)=O)C(=O)N[C@@H](CO)C(=O)N[C@@H](CC(C)C)C(=O)N[C@@H](CCCNC(=N)N)C(=O)N[C@@H](CCCNC(=N)N)C(=O)N[C@H](C(=O)N[C@@H](CCCNC(=N)N)C(=O)N[C@@H](Cc1c[nH]c2ccccc12)C(=O)N[C@@H](CC(C)C)C(=O)N[C@@H](CCCNC(=N)N)C(=O)N[C@@H](CCCCN)C(=O)N[C@@H](CCCCN)C(=O)N[C@@H](CC(C)C)C(=O)N[C@@H](CCCCN)C(=O)N[C@@H](CC(=O)O)C(=O)N[C@H](C(=O)N[C@@H](Cc1c[nH]cn1)C(=O)N[C@@H](CC(N)=O)C(=O)N[C@@H](Cc1ccc(O)cc1)C(=O)N[C@H]1CCOC1=O)C(C)C)C(C)C` [PTH analog 1] (H-SVSEIQLLHNLGKHRNSLRRVRWLRKKLKDVHNY-{hSer(lactone)}), in data set [1], the Average mass flux was determined as 1.4 μg cm^-2 h^-1 and the median mass flux stood at 0.3 μg cm^-2 h^-1. Moreover, the “stability when incubated with stripped stratum corneum” value in data set [2] is given as “not stable”. The compound also came in with an EC50 in data set [3] of 0.9 nM.
In data set [1], `CC[C@H](C)[C@H](NC(=O)[C@H](CCC(=O)O)NC(=O)[C@H](CO)NC(=O)[C@@H](NC(=O)[C@@H](N)CO)C(C)C)C(=O)N[C@@H](CCC(N)=O)C(=O)N[C@@H](CC(C)C)C(=O)N[C@@H](CC(C)C)C(=O)N[C@@H](Cc1c[nH]cn1)C(=O)N[C@@H](CC(N)=O)C(=O)N[C@@H](CO)C(=O)NCC(=O)N[C@@H](CCCCN)C(=O)N[C@@H](Cc1c[nH]cn1)C(=O)N[C@@H](CCCNC(=N)N)C(=O)N[C@@H](CC(N)=O)C(=O)N[C@@H](CO)C(=O)N[C@@H](CO)C(=O)N[C@@H](CCCNC(=N)N)C(=O)N[C@@H](CCCNC(=N)N)C(=O)N[C@@H](CO)C(=O)N[C@@H](CCCNC(=N)N)C(=O)N[C@@H](Cc1c[nH]c2ccccc12)C(=O)N[C@@H](CO)C(=O)N[C@@H](CCCNC(=N)N)C(=O)N[C@@H](CCCCN)C(=O)N[C@@H](CCCCN)C(=O)N[C@@H](CO)C(=O)N[C@@H](CCCCN)C(=O)N[C@@H](CC(=O)O)C(=O)N[C@H](C(=O)N[C@@H](Cc1c[nH]cn1)C(=O)N[C@@H](CC(N)=O)C(=O)N[C@@H](CO)C(=O)N[C@H]1CCOC1=O)C(C)C` [PTH analog 2] (H-SVSEIQLLHNSGKHRNSSRRSRWSRKKSKDVHNS-{hSer(lactone)}) had an Average mass flux of 4.1 μg cm^-2 h^-1 and a median mass flux of 3.2 μg cm^-2 h^-1. Moreover, in data set [2], the “stability when incubated with stripped stratum corneum” value was “not stable”.
